From EP0850306B1, “LACCASES WITH AN ALTERED pH ACTIVITY PROFILE” (Novozymes Biotech, Inc., priority 1995, dated 1997)
Where two headings read alike, the source gives them in different places.

Tests used:
[1] = molecular target: T1, Rhizoctonia solani laccase isozyme 4 (RsL, rsl4), wild type (pJiWa59), SEQ ID NOS:24 and 25 (Thanatephorus cucumeris, UniProt Q02081); test: Laccase substrate oxidation kinetics (Km, kcat), RsL wild type; assay type: biochemical; details: read-out: Km (ABTS); 8 mM MES-NaOH buffer, pH 5.3; spectroscopic
T1 construct: made in house; host or cells: Aspergillus oryzae HowB104
T1 sequence (Q02081 20-531): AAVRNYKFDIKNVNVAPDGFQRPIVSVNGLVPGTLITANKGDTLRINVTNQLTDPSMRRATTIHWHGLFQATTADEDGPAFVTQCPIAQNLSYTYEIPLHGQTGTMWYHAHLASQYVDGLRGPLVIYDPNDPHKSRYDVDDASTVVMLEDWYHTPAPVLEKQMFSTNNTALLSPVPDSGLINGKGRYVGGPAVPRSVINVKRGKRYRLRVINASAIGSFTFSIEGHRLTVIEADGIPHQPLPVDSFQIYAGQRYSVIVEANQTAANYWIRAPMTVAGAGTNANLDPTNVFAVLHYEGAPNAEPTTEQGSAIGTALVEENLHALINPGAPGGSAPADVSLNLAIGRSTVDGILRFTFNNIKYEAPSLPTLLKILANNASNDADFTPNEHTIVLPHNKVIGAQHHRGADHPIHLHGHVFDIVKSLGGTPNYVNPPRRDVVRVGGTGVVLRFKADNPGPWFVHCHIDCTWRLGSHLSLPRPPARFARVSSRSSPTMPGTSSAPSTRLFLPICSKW
Description: (§1) The absorbance at 530 nm is measured over time in a UV-VIS spectrophotometer. One laccase unit (LACU) is defined as the amount of enzyme which oxidizes one µmole of substrate per minute at 30°C.
(§2) Km and kcat are obtained from the initial rate (v), enzyme concentration (E), and substrate concentration (S) in accordance to the equation v = kcat ES/( Km + S) by non-linear regression fitting using the Prizm program (GraphPad, San Diego, CA). […] The O2 concentration in air-saturated buffer solution is assumed as the same in plain water (0.28 mM).

[2] = molecular target: T2, Myceliophthora thermophila laccase (MtL, lcc-1), wild type (pRaMB17), SEQ ID NOS:26 and 27 (Thermothelomyces thermophilus, UniProt G2QG31); test: Laccase substrate oxidation kinetics (Km, kcat), MtL wild type; assay type: biochemical; details: 8 mM MES-NaOH buffer, pH 5.3, spectroscopic
T2 sequence (G2QG31 48-602): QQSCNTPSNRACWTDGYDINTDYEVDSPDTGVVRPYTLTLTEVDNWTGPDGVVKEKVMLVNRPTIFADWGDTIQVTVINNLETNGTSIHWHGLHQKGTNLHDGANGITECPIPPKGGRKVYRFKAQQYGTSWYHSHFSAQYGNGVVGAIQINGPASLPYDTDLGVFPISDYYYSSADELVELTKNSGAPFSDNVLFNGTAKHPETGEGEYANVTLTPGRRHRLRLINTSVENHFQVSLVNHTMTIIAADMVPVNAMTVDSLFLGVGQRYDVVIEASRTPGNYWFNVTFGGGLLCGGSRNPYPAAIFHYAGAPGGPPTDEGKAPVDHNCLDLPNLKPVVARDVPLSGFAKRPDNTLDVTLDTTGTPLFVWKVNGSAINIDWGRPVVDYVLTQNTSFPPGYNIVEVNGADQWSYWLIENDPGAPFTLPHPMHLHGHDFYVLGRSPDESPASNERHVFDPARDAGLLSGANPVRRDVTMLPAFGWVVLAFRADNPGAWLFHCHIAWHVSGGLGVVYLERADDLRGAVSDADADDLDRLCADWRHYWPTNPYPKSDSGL
Description: as §1, §2

[3] = molecular target: T3, Myceliophthora thermophila laccase (MtL) mutant "T", V509L/S510E/G511A (pBANe22T) (Thermothelomyces thermophilus, UniProt G2QG31, G554A/S553E/V552L); test: Laccase substrate oxidation kinetics (Km, kcat), MtL mutant "T"; assay type: biochemical; details: read-out: Km (ABTS); 8 mM MES-NaOH buffer, pH 5.3; spectroscopic
T3 sequence (G2QG31 48-602 V552L/S553E/G554A): T2 sequence (G2QG31 48-602)
Description: as §1, §2

[4] = tested on: COc1cc(C=NN=Cc2cc(OC)c(O)c(OC)c2)cc(OC)c1O; test: as above; assay type: biochemical, Myceliophthora thermophila; details: other: 8 mM MES-NaOH buffer, pH 5.3, spectroscopic
Description: as §1, §2

## CCn1c(=NN=c2sc3cc(S(=O)(=O)O)ccc3n2CC)sc2cc(S(=O)(=O)O)ccc21 [ABTS, 2,2'-azinobis(3-ethylbenzthiazoline-6-sulfonic acid)]
[1]
  Km: 52 ± 6 µM
[2]; read-out: Km (ABTS)
  Km: 110 ± 20 µM
[3]
  Km: 11 ± 2 µM

## COc1cc(C=NN=Cc2cc(OC)c(O)c(OC)c2)cc(OC)c1O [SGZ, syringaldazine]
[2]
  kcat (SGZ): 75 ± 3.33 s⁻¹
[2]; read-out: Km (SGZ)
  Km: 1.4 ± 0.2 µM

## Myceliophthora thermophila laccase (MtL) mutant "T", V509L/S510E/G511A (pBANe22T) (Thermothelomyces thermophilus ATCC 42464; G554A/S553E/V552L)
[4]
  Km: 0.9 ± 0.2 µM
  kcat: 6 ± 0.333 s⁻¹
